# Experimental data taken from patent US20110166191A1, “3-(2-amino-ethyl)-5-(3-cyclohexyl-propylidene)-thiazolidine-2,4-dione and its derivatives as multiple signaling pathway inhibitors and for the treatment of cancer” (priority 2010, published 2011).
# Legend:
# Format in all cases: cell-based
# U937 cells = experiment: Cell apoptosis assay (annexin V/PI flow cytometry); settings: 24 hrs
# Protocol: (§1) FIG. 2. Indicated cancer cells were treated with Formula II synthesized as described in Example 4, 3-(2-aminoethyl)-5-(3-cyclohexylpropylidene)thiazolidine-2,4-dione, at indicated concentrations for 24 hrs, then stained with Annexin-V/PI and analyzed by flow cytometry.
# (§2) Apoptosis was measured by flow cytometry using annexin V/propidium iodide (PI) as staining reagent. Briefly, after treatment with test compound of varying concentrations for varying intervals (4, 8, 18, 36 hrs), cells were washed twice with cold PBS and then resuspended in 1× binding buffer (10 mM HEPES [N-2-hydroxyethylpiperazine-N′-2-ethanesulfonic acid]/NaOH, pH 7.4, 140 mM […], 2.5 mM CaCl2). The cells were then incubated with annexin V-fluorescein isothiocyanate (FITC) (BD PharMingen, San Diego, Calif.) and 5 μg/mL propidium iodide (PI), and incubated for 15 minutes at room temperature in the dark per the manufacturer's instructions. The samples were analyzed by flow cytometry using a Becton Dickinson FACScan (Becton Dickinson, San Jose, Calif.) within 1 hr to determine the percentage of cells displaying annexin V staining (early apoptosis) or both annexin V and PI staining (late apoptosis).
# M12 cells = experiment: Cell apoptosis assay (annexin V/PI flow cytometry); settings: 24 hrs
# Protocol: as §1, §2
# DU145 cells = experiment: Cell apoptosis assay (annexin V/PI flow cytometry); settings: 24 hrs
# Protocol: as §1, §2
# OVCAR-5 = experiment: NCI 60 cell line panel screening; settings: Homo sapiens, Ovarian Cancer, read-out: Growth Inhibition (GI50)
# Excerpt: (§3) Compound 3-(2-aminoethyl)-5-(3-cyclohexylpropylidene)thiazolidine-2,4-dione was screened at five concentrations in National Cancer Institute (NCI) 60-cell line panel according to NCI's protocol for growth inhibition.
# T-47D = experiment: NCI 60 cell line panel screening; settings: Homo sapiens, T47D, Breast Cancer, read-out: Growth Inhibition (GI50)
# Excerpt: as §3
# BT-549 = experiment: NCI 60 cell line panel screening; settings: Homo sapiens, Breast Cancer, read-out: Growth Inhibition (GI50)
# Excerpt: as §3
# NCI-H23 = experiment: NCI 60 cell line panel screening; settings: Homo sapiens, Non-Small Cell Lung Cancer, read-out: Growth Inhibition (GI50)
# Excerpt: as §3
# ACHN = experiment: NCI 60 cell line panel screening; settings: Homo sapiens, Renal Cancer, read-out: Growth Inhibition (GI50)
# Excerpt: as §3
# M14 = experiment: NCI 60 cell line panel screening; settings: Homo sapiens, Melanoma, read-out: Growth Inhibition (GI50)
# Excerpt: as §3
# CCRF-CEM = experiment: NCI 60 cell line panel screening; settings: Homo sapiens, Leukemia, read-out: Growth Inhibition (GI50)
# Excerpt: as §3
# HOP-92 = experiment: NCI 60 cell line panel screening; settings: Homo sapiens, Non-Small Cell Lung Cancer, read-out: Growth Inhibition (GI50)
# Excerpt: as §3
# SK-MEL-2 = experiment: NCI 60 cell line panel screening; settings: Homo sapiens, Melanoma, read-out: Growth Inhibition (GI50)
# Excerpt: as §3
# OVCAR-4 = experiment: NCI 60 cell line panel screening; settings: Homo sapiens, Ovarian Cancer, read-out: Growth Inhibition (GI50)
# Excerpt: as §3
# NCI/ADR-RES = experiment: NCI 60 cell line panel screening; settings: Homo sapiens, Ovarian Cancer, read-out: Growth Inhibition (GI50)
# Excerpt: as §3
# IGROV1 = experiment: NCI 60 cell line panel screening; settings: Homo sapiens, IGROV-1, Ovarian Cancer, read-out: Growth Inhibition (GI50)
# Excerpt: as §3
# HCC-2998 = experiment: NCI 60 cell line panel screening; settings: Homo sapiens, Colon Cancer, read-out: Growth Inhibition (GI50)
# Excerpt: as §3
# SK-MEL-28 = experiment: NCI 60 cell line panel screening; settings: Homo sapiens, Melanoma, read-out: Growth Inhibition (GI50)
# Excerpt: as §3
# NCI-H322M = experiment: NCI 60 cell line panel screening; settings: Homo sapiens, Non-Small Cell Lung Cancer, read-out: Growth Inhibition (GI50)
# Excerpt: as §3
# SK-OV-3 = experiment: NCI 60 cell line panel screening; settings: Homo sapiens, Ovarian Cancer, read-out: Growth Inhibition (GI50)
# Excerpt: as §3
# OVCAR-8 = experiment: NCI 60 cell line panel screening; settings: Homo sapiens, Ovarian Cancer, read-out: Growth Inhibition (GI50)
# Excerpt: as §3
# UO-31 = experiment: NCI 60 cell line panel screening; settings: Homo sapiens, Renal Cancer, read-out: Growth Inhibition (GI50)
# Excerpt: as §3
# MOLT-4 = experiment: NCI 60 cell line panel screening; settings: Homo sapiens, Leukemia, read-out: Growth Inhibition (GI50)
# Excerpt: as §3
# HT29 = experiment: NCI 60 cell line panel screening; settings: Homo sapiens, HT-29, Colon Cancer, read-out: Growth Inhibition (GI50)
# Excerpt: as §3
# HOP-62 = experiment: NCI 60 cell line panel screening; settings: Homo sapiens, Non-Small Cell Lung Cancer, read-out: Growth Inhibition (GI50)
# Excerpt: as §3
# RPMI-8226 = experiment: NCI 60 cell line panel screening; settings: Homo sapiens, Leukemia, read-out: Growth Inhibition (GI50)
# Excerpt: as §3
# SF-295 = experiment: NCI 60 cell line panel screening; settings: Homo sapiens, CNS Cancer, read-out: Growth Inhibition (GI50)
# Excerpt: as §3
# RXF-393 = experiment: NCI 60 cell line panel screening; settings: Homo sapiens, Renal Cancer, read-out: Growth Inhibition (GI50)
# Excerpt: as §3
# SK-MEL-5 = experiment: NCI 60 cell line panel screening; settings: Homo sapiens, Melanoma, read-out: Growth Inhibition (GI50)
# Excerpt: as §3
# phosphorylation of ERK = experiment: Western blot analysis of p-ERK in U937 cells; settings: 3 μM, PMA/TPA 200 nM stimulation
# Protocol: FIG. 1. U937 cells were treated with Formula II prepared as described in Example 4 [i.e. 3-(2-aminoethyl)-5-(3-cyclohexylpropylidene)thiazolidine-2,4-dione] for 1 h, then stimulated with PMA (200 nM) for 30 min. Lysates were analyzed for p-Akt, p-MEK, p-ERK and α-tubulin by western blot analysis.
# Cells (5×10^5 per ml) were treated with various concentrations of test compound at 37° C. (5% CO2) for 3 hrs, then stimulated with TPA at a final concentration of 200 nM for 20 min. Samples from whole-cell pellets were prepared and 30 μg protein for each condition was subjected to SDS-PAGE, transferred onto a PVDF membrane, and blocked with 5% fat-free milk for 30 min. The membrane is probed with primary antibodies overnight at 4° C. followed by incubation with horseradish peroxidase-labeled anti-mouse IgG (1:5000, BD Biosciecne). The immunoreactive bands are detected by chemiluminescence methods (Pierce) and visualized on Kodak Omat film. The following primary antibodies were used: phospho-p44/42 MAPK (ERK1/2, Thr202/Tyr204), p44/42 MAPK, phospho-p90RSK (Thr359/Ser363), RSK1/RSK2/RSK3 (Cell Signaling). Blots were reprobed with antibodies against α-tubulin to ensure equal loading and transfer of proteins.
compound,measurement,setting,value
"NCCN1C(=O)S/C(=C\CCC2CCCCC2)C1=O [Example 4, 3-(2-aminoethyl)-5-(3-cyclohexylpropylidene)thiazolidine-2,4-dione]",apoptosis (Annexin-V/PI),U937 cells,significantly and dose-dependently induced apoptosis
same,apoptosis (Annexin-V/PI),M12 cells,significantly and dose-dependently induced apoptosis
same,apoptosis (Annexin-V/PI),DU145 cells,minimal apoptotic effects
same,GI50,OVCAR-5,1.98 µM
same,GI50,T-47D,2.04 µM
same,GI50,BT-549,2.05 µM
same,GI50,NCI-H23,3.08 µM
same,GI50,ACHN,1.84 µM
same,GI50,M14,1.68 µM
same,GI50,CCRF-CEM,2.5 µM
same,GI50,HOP-92,5.41 µM
same,GI50,SK-MEL-2,1.9 µM
same,GI50,OVCAR-4,1.6 µM
same,GI50,NCI/ADR-RES,2.2 µM
same,GI50,IGROV1,1.96 µM
same,GI50,HCC-2998,1.78 µM
same,GI50,SK-MEL-28,1.77 µM
same,GI50,NCI-H322M,5.1 µM
same,GI50,SK-OV-3,4.04 µM
same,GI50,OVCAR-8,1.89 µM
same,GI50,UO-31,1.56 µM
same,GI50,MOLT-4,2.38 µM
same,GI50,HT29,2.04 µM
same,GI50,HOP-62,3.25 µM
same,GI50,RPMI-8226,2.51 µM
same,GI50,SF-295,1.73 µM
same,GI50,RXF-393,2.56 µM
same,GI50,SK-MEL-5,1.7 µM
same,"phosphorylation of ERK (p-ERK, western blot)",phosphorylation of ERK,significantly inhibited the phosphorylation of ERK
